Experimental data taken from US7846950B2, “Histamine H3 receptor inhibitors, preparation and therapeutic uses” (Eli Lilly and Company, priority 2004, dated 2010).

Target: T1, human histamine 3 receptor (Homo sapiens, UniProt Q9Y5N1)
T1 construct: expressed in transfected cells; membranes
Experiment: H3R binding assay (competitive inhibition SPA, [3H] alpha-methylhistamine, HEK293 H3R8 membranes)
Conditions: read-out: Human H3 Receptor Ki
Excerpt: The compounds of the present invention can readily be evaluated by using a competitive inhibition Scintillation Proximity Assay (SPA) based on a H3R binding assay using [3H] α methylhistamine as ligand. Stable cell lines, including but not limited to HEK can be transfected with cDNA coding for H3R to prepare membranes used for the binding assay. The technique is illustrated below (Preparation of Histamine Receptor Subtype Membranes) for the histamine receptor subtypes.
cDNA for the human histamine 1 receptor (H1R) was cloned into a mammalian expression vector containing the CMV promoter (pcDNA3.1(+), Invitogen) and transfected into HEK293 cells using the FuGENE Tranfection Reagent (Roche Diagnostics Corporation). Transfected cells were selected using G418 (500 μ/mL). Colonies that survived selection were grown and tested for histamine binding to cells grown in 96-well dishes using a scintillation proximity assay (SPA) based radioligand binding assay. Briefly, cells, representing individual selected clones, were grown as confluent monolayers in 96-well dishes (Costar Clear Bottom Plates, #3632) by seeding wells with 25,000 cells and growing for 48 hours (37° C., 5% CO2). […] Plates were counted in a Wallac Trilux 1450 Microbeta scintillation counter. […]
cDNA for the human histamine 3 receptor was cloned and expressed as described in (A. Preparation H1R membranes), above. […]

T1 sequence (Q9Y5N1 whole entry): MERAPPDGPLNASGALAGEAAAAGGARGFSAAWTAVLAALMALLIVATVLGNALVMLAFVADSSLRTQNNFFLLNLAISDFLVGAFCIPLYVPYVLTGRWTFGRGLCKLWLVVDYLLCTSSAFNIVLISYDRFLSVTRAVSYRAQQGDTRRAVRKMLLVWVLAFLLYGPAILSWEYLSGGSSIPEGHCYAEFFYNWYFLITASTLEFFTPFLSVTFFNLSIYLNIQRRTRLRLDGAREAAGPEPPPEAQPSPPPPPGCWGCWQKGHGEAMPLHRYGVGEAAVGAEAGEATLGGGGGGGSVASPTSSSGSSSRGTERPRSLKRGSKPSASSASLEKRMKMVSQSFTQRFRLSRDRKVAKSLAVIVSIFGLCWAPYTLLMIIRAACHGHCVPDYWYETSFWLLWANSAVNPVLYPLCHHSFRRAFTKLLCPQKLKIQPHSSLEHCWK

SMILES: C[C@@H]1CCCN1C[C@@H]1CCCN1C(=O)c1ccc(OCc2ncon2)cc1F
- Ki: 1.8 nM

SMILES: O=C(c1ccc(OCc2ccco2)cc1)N1CCC[C@H]1CN1CCCC1
- Ki: 6.2 nM
